Molecular target: human GPR40 (Homo sapiens, UniProt O14842)
Experiment: Inositol Phosphate Turnover (IP1) Assay 2
Type: cell-based
Design: expressed in transfected cells
Settings: HEK cells stably expressing human GPR40, Table 2, read-out: Human IP1
Protocol: Human and mouse GPR40 stable cell-lines were generated in CHO cells stably expressing NFAT BLA (Beta-lactamase). A human GPR40 stable cell-line was generated in HEK cells stably expressing the aequorin expressing reporter. The expression plasmids were transfected using lipofectamine (Life Technologies) following manufacturer's instructions. Stable cell-lines were generated following drug selection.
The assay is performed in 384-well format. HEK cells stably expressing human GPR40 are plated at 15,000 cells per well in growth medium (DMEM/10% fetal calf serum). Cell plates are then incubated 16 hours at 37 degrees in a 5% CO2 incubator.
Measurement of Inositol Phosphate Turnover (IP1) is performed using the CisBio IP-One kit (Part number 62IPAPEB). After the 16 hour incubation, the cells are washed with HEPES buffer and 10 ul of stimulation buffer (prepared as described in the kit) is added to each well. In a separate plate, compounds are diluted in DMSO (400-fold over the final concentration in the assay well) and 25 nl is acoustically transferred to the appropriate well in the assay cell plate. The plates are then incubated for 60 minutes at 37 degrees. 10 ul of detection buffer (also prepared as described in the IP-One kit) is added to each well and the plates are incubated for 60 minutes in the dark. The plates are then read in a Perkin Elmer EnVision or equivalent reader able to measure FRET.

human GPR40, sequence (O14842 whole entry): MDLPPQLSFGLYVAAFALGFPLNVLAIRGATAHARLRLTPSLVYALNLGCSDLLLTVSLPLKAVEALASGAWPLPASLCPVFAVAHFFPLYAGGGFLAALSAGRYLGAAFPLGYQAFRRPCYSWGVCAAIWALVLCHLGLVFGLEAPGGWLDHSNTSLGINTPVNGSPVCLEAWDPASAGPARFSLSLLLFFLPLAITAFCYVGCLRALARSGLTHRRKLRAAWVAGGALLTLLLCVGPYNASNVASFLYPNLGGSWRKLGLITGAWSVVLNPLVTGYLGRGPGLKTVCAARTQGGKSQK

Compound	EC50 [nM]
COc1cc(-c2ccc(C3CCc4ccc([C@H](C5CC5)[C@H](C)C(=O)O)cc4O3)nc2)ccn1 (single isomer, unassigned) [Example 120a]	4.4
COc1cc(-c2ccc(C3CCc4ccc([C@H](C5CC5)[C@H](C)C(=O)O)cc4O3)nc2)ccn1 (single isomer, unassigned) [Example 120b]	1.9
COc1ccc(F)c(-c2ccc(C3CCc4ccc([C@@H](CC(=O)O)C5CC5)cc4O3)cc2C(OC)C(C)(C)C)c1 (single isomer, unassigned) [Example 125a]	7.3
COc1ccc(F)c(-c2ccc(C3CCc4ccc([C@@H](CC(=O)O)C5CC5)cc4O3)cc2C(OC)C(C)(C)C)c1 (single isomer, unassigned) [Example 125b]	8.6
COc1ccc(F)c(-c2ccc(C3CCc4ccc([C@@H](CC(=O)O)C5CC5)cc4O3)cc2C(OC)C(C)(C)C)c1 (single isomer, unassigned) [Example 125c]	235
COc1ccc(F)c(-c2ccc(C3CCc4ccc([C@@H](CC(=O)O)C5CC5)cc4O3)cc2C(OC)C(C)(C)C)c1 (single isomer, unassigned) [Example 125d]	256
COc1ccc(F)c(-c2ccc(C3CCc4ccc(C(C)CC(=O)O)cc4O3)cc2)c1 (single isomer, unassigned) [Example 138, (S or R)-3-((R or S)-2-(2′-fluoro-5′-methoxy-[1,1′-biphenyl]-4-yl)chroman-7-yl)butanoic acid]	1200
COc1ccc(F)c(-c2ccc(C3CCc4ccc(C(C)CC(=O)O)cc4O3)cc2)c1 (single isomer, unassigned) [Example 139]	116
COc1ccc(F)c(-c2ccc(C3CCc4ccc(C(C)CC(=O)O)cc4O3)cc2)c1 (single isomer, unassigned) [Example 140]	1230
COc1ccc(F)c(-c2ccc(C3CCc4ccc(C(C)CC(=O)O)cc4O3)cc2)c1 (single isomer, unassigned) [Example 141]	354
COc1ccc(F)c(-c2ccc(C3CCc4ccc(C(C)C(C)C(=O)O)cc4O3)cc2)c1 (single isomer, unassigned) [Example 142]	13
COc1ccc(F)c(-c2ccc(C3CCc4ccc(C(C)C(C)C(=O)O)cc4O3)cc2)c1 (single isomer, unassigned) [Example 143]	252
COc1ccc(F)c(-c2ccc(C3CCc4ccc(C(C)C(C)C(=O)O)cc4O3)cc2)c1 (single isomer, unassigned) [Example 144]	1420
COc1ccc(F)c(-c2ccc(C3CCc4ccc(C(C)C(C)C(=O)O)cc4O3)cc2)c1 (single isomer, unassigned) [Example 145]	77
COc1ccc(F)c(-c2ccc(C3CCc4ccc(C(C)C(C)C(=O)O)cc4O3)cc2)c1 (single isomer, unassigned) [Example 146]	270
COc1ccc(F)c(-c2ccc(C3CCc4ccc([C@H](CC(=O)O)C5CCC5)cc4O3)cc2)c1 (single isomer, unassigned) [Example 148, (3R)-3-cyclobutyl-3-((R or S)-(2-(2′-fluoro-5′-methoxy-[1,1′-biphenyl]-4-yl)chroman-7-yl)propanoic acid]	398
COc1ccc(F)c(-c2ccc([C@H]3CCc4ccc([C@@H](CC(=O)O)C5CCC5)cc4O3)cc2)c1 (single isomer, unassigned) [Example 149, (3S)-3-cyclobutyl-3-((R or S)-(2-(2′-fluoro-5′-methoxy-[1,1′-biphenyl]-4-yl)chroman-7-yl)propanoic acid]	41
COc1ccc(F)c(-c2ccc([C@H]3CCc4ccc([C@H](CC(=O)O)C5CCC5)cc4O3)cc2)c1 (single isomer, unassigned) [Example 150, (3R)-3-cyclobutyl-3-((R or S)-(2-(2′-fluoro-5′-methoxy-[1,1′-biphenyl]-4-yl)chroman-7-yl)propanoic acid]	660
COc1ccc(F)c(-c2ccc([C@@H]3CCc4ccc([C@@H](CC(=O)O)C5CCC5)cc4O3)cc2)c1 (single isomer, unassigned) [Example 151, (3S)-3-cyclobutyl-3-((R or S)-(2-(2′-fluoro-5′-methoxy-[1,1′-biphenyl]-4-yl)chroman-7-yl)propanoic acid]	79
COc1ccc(F)c(-c2ccc(C3CCc4ccc(C(C5CCC5)C(C)C(=O)O)cc4O3)cc2)c1 (single isomer, unassigned) [Example 152, (2S,3S)-3-cyclobutyl-3-((R or S)-2-(2′-fluoro-5′-methoxy-[1,1′-biphenyl]-4-yl)chroman-7-yl)-2-methylpropanoic acid]	774
COc1ccc(F)c(-c2ccc(C3CCc4ccc(C(C5CCC5)C(C)C(=O)O)cc4O3)cc2)c1 (single isomer, unassigned) [Example 153]	22
COc1ccc(F)c(-c2ccc(C3CCc4ccc(C(C5CCC5)C(C)C(=O)O)cc4O3)cc2)c1 (single isomer, unassigned) [Example 154]	86
COc1ccc(F)c(-c2ccc(C3CCc4ccc(C(C5CCC5)C(C)C(=O)O)cc4O3)cc2)c1 (single isomer, unassigned) [Example 155]	1
COc1ccc(F)c(-c2ccc(C3CCc4ccc(C(C5CCC5)C(C)C(=O)O)cc4O3)cc2)c1 (single isomer, unassigned) [Example 156]	209
COc1ccc(F)c(-c2ccc(C3CCc4ccc(C(C5CCC5)C(C)C(=O)O)cc4O3)cc2)c1 (single isomer, unassigned) [Example 157]	90
COc1ccc(F)c(-c2ccc(C3CCc4ccc(C(C5CCC5)C(C)C(=O)O)cc4O3)cc2)c1 (single isomer, unassigned) [Example 158]	132
COc1ccc(F)c(-c2ccc(C3CCc4ccc(C(C5CCC5)C(C)C(=O)O)cc4O3)cc2)c1 (single isomer, unassigned) [Example 159]	1.8

The remaining lines, values ahead:

EC50 [nM]	Compound
88	COc1ccc(F)c(-c2ccc(C3CCc4ccc([C@@H](CC(=O)O)C5CC5)cc4O3)cn2)c1 (single isomer, unassigned) [Example 122a]
244	COc1ccc(F)c(-c2ccc(C3CCc4ccc([C@@H](CC(=O)O)C5CC5)cc4O3)cn2)c1 (single isomer, unassigned) [Example 122b]
51	COc1ccc(F)c(-c2cnc(C3CCc4ccc([C@H](C5CC5)C(C)C(=O)O)cc4O3)nc2)c1 (single isomer, unassigned) [Example 124a]
70	COc1ccc(F)c(-c2cnc(C3CCc4ccc([C@H](C5CC5)C(C)C(=O)O)cc4O3)nc2)c1 (single isomer, unassigned) [Example 124b]
0.8	COc1ccc(F)c(-c2ccc(C3CCc4ccc([C@H](C5CC5)[C@H](C)C(=O)O)cc4O3)nc2C(OC)C(C)(C)C)c1 (single isomer, unassigned) [Example 135a]
21	COc1ccc(F)c(-c2ccc(C3CCc4ccc([C@H](C5CC5)[C@H](C)C(=O)O)cc4O3)nc2C(OC)C(C)(C)C)c1 (single isomer, unassigned) [Example 135b]
2.8	COc1ccc(F)c(-c2ccc(C3CCc4ccc([C@H](C5CC5)[C@H](C)C(=O)O)cc4O3)nc2C(OC)C(C)(C)C)c1 (single isomer, unassigned) [Example 135c]
44	COc1ccc(F)c(-c2ccc(C3CCc4ccc([C@H](C5CC5)[C@H](C)C(=O)O)cc4O3)nc2C(OC)C(C)(C)C)c1 (single isomer, unassigned) [Example 135d]
9	COc1ccc(F)c(-c2ccc(C3CCc4ccc(C(C)C(C)C(=O)O)cc4O3)cc2)c1 (single isomer, unassigned) [Example 147a]
3180	COc1ccc(F)c(-c2ccc(C3CCc4ccc(C(C)C(C)C(=O)O)cc4O3)cc2)c1 (single isomer, unassigned) [Example 147b]
138	COc1ccc(F)c(-c2ccc(C3CCc4ccc(C(C)C(C)C(=O)O)cc4O3)cc2)c1 (single isomer, unassigned) [Example 147c]

Same assay, conditions: HEK cells stably expressing human GPR40, Table 3, read-out: Human IP1 activity

EC50 [nM]	Compound
1.6	COc1ccc(F)c(-c2ccc(C3COc4ccc([C@H](C5CC5)[C@H](C)C(=O)O)cc4O3)nc2)c1 (single isomer, unassigned) [Example 160]
2.2	COc1ccc(F)c(-c2ccc(C3COc4ccc([C@H](C5CC5)[C@H](C)C(=O)O)cc4O3)nc2)c1 (single isomer, unassigned) [Example 161]
31	COc1ccc(F)c(-c2ccc(C3COc4ccc([C@@H](CC(=O)O)C5CC5)cc4O3)cc2)c1 (single isomer, unassigned) [Example 167]
120	COc1ccc(F)c(-c2ccc(C3COc4ccc([C@@H](CC(=O)O)C5CC5)cc4O3)cc2)c1 (single isomer, unassigned) [Example 168]
2.6	COc1ccc(F)c(-c2ccc(C3COc4ccc([C@H](C5CC5)[C@H](C)C(=O)O)cc4O3)cc2OC(F)(F)F)c1 (single isomer, unassigned) [Example 171]
6.9	COc1ccc(F)c(-c2ccc(C3COc4ccc([C@H](C5CC5)[C@H](C)C(=O)O)cc4O3)cc2OC(F)(F)F)c1 (single isomer, unassigned) [Example 172]
1.8	COc1ccc(F)c(-c2ccc(C3COc4ccc([C@H](C5CC5)[C@H](C)C(=O)O)cc4O3)cc2)c1 (single isomer, unassigned) [Example 173]

Source: patent US9840512B2, “Antidiabetic bicyclic compounds” (Merck Sharp & Dohme Corp., priority 2013, dated 2017)
